In the NIST ThermoML archive (doi:10.1016/j.jct.2014.07.023):

Assay: molar heat capacity at constant pressure; xn = mol fraction of the nth substance listed
Details: 100 kPa, Liquid, Small sample (50 mg) DSC

CC(O)C(C)O (stereo unspecified) [2,3-butanediol] + CO
molar heat capacity at constant pressure [J/K/mol]
Details	293.15 K	298.15 K	303.15 K	308.15 K	313.15 K	318.15 K	323.15 K
x1 = 0.0456	86.73	87.8	88.95	90.13	91.37	92.66	94.01
x1 = 0.0847	92.44	93.66	94.92	96.21	97.54	98.95	100.35
x1 = 0.1972	108.82	110.3	111.78	113.35	114.96	116.61	118.31
x1 = 0.2792	121.32	122.96	124.65	126.34	128.08	129.81	131.6
x1 = 0.3824	136.66	138.56	140.46	142.41	144.36	146.37	148.43
x1 = 0.4673	150.38	152.39	154.41	156.48	158.55	160.68	162.81
x1 = 0.5862	168.13	170.37	172.69	174.93	177.25	179.63	182.01
x1 = 0.7041	186.64	189.05	191.46	193.94	196.41	198.89	201.45
x1 = 0.8169	204.52	207.14	209.84	212.55	215.17	217.87	220.58
x1 = 0.8832	214.76	217.34	220.01	222.68	225.26	227.93	230.59
x1 = 0.9271	221.76	224.59	227.34	230.18	233.01	235.93	238.77
x1 = 0.9501	225.38	228	230.7	233.32	236.11	238.82	241.61
x1 = 1	233.95	236.66	239.36	242.07	244.77	247.47	250.18
